A short description of data set [1]: stability of the synthetic peptides in human plasma. It counts as in vitro ADME. The following applies: 37° C., peptide 100 μM; for half-life at 100 μM: male, read-out: Half-Time of the synthetic peptides in plasma. As to the method: The blood sample thus prepared was examined for the stability in whole blood. […] Then, the supernatant was collected to obtain a plasma fraction. This plasma fraction was examined for the stability in plasma.
The whole blood or plasma (225 μl) was placed in a test tube and heated to 37° C. Each of the synthetic peptides was dissolved in saline (pH 7.4) to prepare a solution at a concentration of 1 mM. Each of the synthetic peptide solutions was added to the whole blood or plasma in an amount of 25 μl (final concentration: 100 μM) and incubated for a certain period of time. After the incubation, the solution was cooled with ice to stop the degradation reaction. The plasma was stored frozen at -20° C. without performing any treatments. The whole blood was centrifuged at 2000 g for 5 minutes at 4° C. and the supernatant was stored frozen.
The samples were analyzed by reversed phase HPLC. The peak area of each synthetic peptide was calculated and the stability in the whole blood or plasma was evaluated from the change of the peak area.

The next data set can be described thus: in vivo. The arrangement: species or system MCH (ICR) strain mice. To be noted: male, MCH (ICR), mouse, iv; for half-life: Half-Time of the synthetic peptides in mice. As to the method: For the evaluation of stability, MCH (ICR) strain mice (male, body weight: 28-32 g) were used. […] After a certain period of time, blood was collected from the abdominal vein using an injection syringe treated with heparin. Immediately after the collection, the blood was centrifuged (1500 g, 3 minutes) at 4° C. and the supernatant was stored frozen at -20° C. Each of the supernatants was analyzed by reversed phase HPLC in the same manner as that in the aforementioned evaluation of stability in plasma.

The subject of a further data set is platelet aggregation. Briefly: intravenous injection in beagle, platelet aggregation of PRP measured over time. It counts as in vivo. To be noted: 5 mg/Kg i.v. On the procedure: (1) In order to examine how long the peptides of the present invention and heparin, which is used as an anticoagulant at present, can remain without being broken down or eliminated and how long the activity of them persists, intravenous injection experiments were carried out using beagles.
Since the peptides of the present invention have the platelet aggregation-inhibiting activity, the amount of the peptides which remain in the body of an organism without being broken down can be determined by collecting blood and measuring the platelet aggregation-inhibiting activity of the blood at given intervals of time. Thus, the in vivo stability of the peptides can be estimated.
In the experiments, a male beagle having a body weight of 10 Kg was used. […] The collected blood was centrifuged at 1000 rpm for 10 minutes to prepare platelet-rich plasma (PRP). The reminder was further centrifuged at 3000 rpm for 15 minutes to prepare platelet-poor plasma (PPP).
The platelet aggregation ability was determined by measuring the platelet aggregation of the PRP with collagen and ADP using an aggregometer. In the measurement, ADP was added at a final concentration of 7.5 and 10.0 μM and collagen was added at a final concentration of 7.5 and 10.0 μg/ml.

In another data set the test system is human platelets. Briefly: protection of human platelet fraction during storage. The following applies: platelet fraction, enzymes present in plasma.
For the next data set, the system named is blood coagulation. As to the kind of experiment: intravenous heparin in beagle, prothrombin time and activated partial thromboplastin time. In kind it is in vivo. The following applies: 200 U/Kg i.v. As to the method: (2) Heparin, currently used as an anticoagulant, was used as a comparison with the peptides of the present invention.
Therefore, the in vivo stability of heparin was estimated by measuring the time-dependent change in the anticoagulation action which is the main action of heparin.
In the experiments, haparin as dissolved in saline was injected into the vein and blood was collected at given intervals of time to prepare PPP by the same method as that described in (1).
In the measurement of the anticoagulation action, the prepared PPP was used to measure prothrombin time, which is an indicator of blood coagulation activity in vitro, and activated partial thromboplastin time according to a conventional method. Each measurement was conducted under preincubation conditions at 37° C. for 3 minutes using AMELUNG KC-10A (Baxtor CO.). The rate of the disappearance of heparin from the body can be estimated by measuring the prolongations of the prothrombin time and the activated partial thromboplastin time (i.e., the prolongation of time up to coagulation) after the injection.

Non-standard residues stand in square brackets, D forms with d. Residues, ends and D or L forms follow the SMILES beside them. No end group written: not given here. *: point of attachment. pGlu = O=C1CC[C@@H](C(=O)O)N1; Pip = O=C(O)[C@@H]1CCCCN1; X2 = O=C(c1cc(O)nc(O)n1)*; Aze = O=C(O)[C@@H]1CCN1

Protocol for human platelets: Immediately after the blood collection, the syringe was stirred gently to mix the blood with the sodium citrate solution. The mixed blood was centrifuged (1100 rpm, 250 g) at room temperature for 15 minutes and the rotation was stopped without applying the brake. Then, the supernatant was collected with a pipette to obtain a platelet fraction. The remaining blood was further centrifuged (3000 rpm, 1000 g). The supernatant was collected to obtain platelet-poor plasma and stored.
The platelet fraction was placed in a polypropylene test tube, which was capped with a membrane filter to ensure breathability. Then, the test tube was placed on a shaker and stored at room temperature while shaking through vibrational amplitude of 20 cm at a frequency of 2 Hz. All the operations were performed under aseptic conditions to prevent the proliferation of bacteria during the storage.
After the storage for a given period of time, an aliquot of the platelet fraction was sampled and the number of platelets was measured. Prostaglandin E1 (Sigma Co.) was added to give a final concentration of 20 μg/ml and centrifuged at 750 g for 10 minutes. The supernatant was removed and the remainder was washed twice with HEPES-Tyrode's buffer containing prostaglandin E1 to remove the protected peptide. Finally, the platelets were suspended in preliminarily stored platelet-poor plasma. After the incubation for a given period of time, the aggregation ability of the platelets was determined by the method described above.

For the compound `N=C(N)NCCC[C@H](NC(=O)[C@H](CO)NC(=O)c1cc(O)nc(O)n1)C(=O)NCC(=O)N[C@@H](CC(=O)O)C(=O)N[C@@H](Cc1c[nH]c2ccccc12)C(=O)O` [Example 9, Orotyl--Ser--Arg--Gly--Asp--Trp--OH] (X2-SRGDW-OH), in data set [1], the half-life at 100 μM is at least 240 min. Moreover, in “in vivo”, the “Half-Time of the synthetic peptides in mice” value came to 6.9 min and the half-life came to 10.1 min. For the same compound, the “time within which the peptide was broken down in the body or eliminated from the kidney” value with platelet aggregation was at most 60 min.
Regarding `N=C(N)NCCC[C@H](NC(=O)[C@H](CO)NC(=O)[C@@H]1CCC(=O)N1)C(=O)NCC(=O)N[C@@H](CC(=O)O)C(=O)N[C@@H](Cc1c[nH]c2ccccc12)C(=O)O` [Example 11, Pyroglutamyl--Ser--Arg--Gly--Asp--Trp--OH] ([pGlu]SRGDW-OH), the half-life at 100 μM in data set [1] is at least 240 min.
In the case of `N=C(N)NCCC[C@H](NC(=O)[C@H](CO)NC(=O)[C@@H]1CCN1)C(=O)NCC(=O)N[C@@H](CC(=O)O)C(=O)N[C@@H](Cc1c[nH]c2ccccc12)C(=O)O` [Example 17, (L-2-Azetidinecarboxyl)--Ser--Arg--Gly--Asp--Trp--OH] (H-[Aze]SRGDW-OH), in data set [1], the half-life at 100 μM is 49 min. Further, the half-life in “in vivo” came to 3.3 min.
Take `N=C(N)NCCC[C@H](NC(=O)[C@H](CO)NC(=O)[C@@H]1CCCCN1)C(=O)NCC(=O)N[C@@H](CC(=O)O)C(=O)N[C@@H](Cc1c[nH]c2ccccc12)C(=O)O` [Example 18, (L-Pipecolinyl)--Ser--Arg--Gly--Asp--Trp--OH] (H-[Pip]SRGDW-OH): in data set [1], the “Half-Time of the synthetic peptides in plasma” value (“Half-Time … in plasma” for short) is reported as “at least 120 minutes” and the half-life at 100 μM is at least 120 min. The half-life in “in vivo” was 3.3 min.
Regarding `N=C(N)NCCC[C@H](N)C(=O)NCC(=O)N[C@@H](CC(=O)O)C(=O)N[C@@H](Cc1ccccc1)C(=O)O` [RGDF, reference compound] (H-RGDF-OH), in the data set on human platelets, the “stability when added to a platelet fraction” value is reported as “broken down in several hours”.
“PSRGDW-OH [Example 16, Pro--Ser--Arg--Gly--Asp--Trp--OH]”: in data set [1], the “Half-Time … in plasma” value came out at 74.5 min and the half-life at 100 μM came out at 74.5 min. The compound further yielded a half-life in “in vivo” of at most 2 min.
“WSRGDW-OH [Example 1, Trp--Ser--Arg--Gly--Asp--Trp--OH]”: in data set [1], the “Half-Time … in plasma” value turned out to be 11.5 min and the half-life at 100 μM amounted to 11.5 min. The compound also gave a half-life in the data set “in vivo” of at most 2 min.
As to heparin, in the data set with blood coagulation, the “activated partial thromboplastin time” value was “The same results were obtained” and the “time to completely recover prothrombin time to the level before injection” value is 2 to 3 h.

(Values after patent US5498601A, “Platelet aggregation-inhibiting peptides” (Nippon Steel Corporation, priority 1992, dated 1996).)
